pIC50, pKd: −log10 of the molar value.

Experiment [1] has as its target T1, α-synuclein (Homo sapiens (Human), UniProt P37840). Put plainly: PBB5 competition assay. The note with it: 2 μM α-synuclein, 0.26 μM PBB5, 37° C., 1 hour. In kind it is binding. Here is the method:
(§1) (A) Expression and purification of recombinant wild-type human α-synuclein: 0.5 mM IPTG was used to induce production of wild type human α-synuclein by bacteria transformed with a full-length α-synuclein expression plasmid. After shaking at 16° C. for 20 hours, cell pellet was resuspended in lysis buffer (10 mM Tris, 1 mM EGTA, 0.75 mM NaCl, 1 mM PMSF, pH 7.5) and lysed by sonication followed by centrifugation (6000 g, 30 min, 4° C.). The supernatant was then boiled at 95° C. for 15 min with manual agitation by every 5 minutes, followed by centrifugation (6000 g, 30 min, 4° C.). Supernatant was dialyzed with (10 mM Tris, 1 mM EGTA, 50 mM NaCl, pH 7.5) buffer and concentrated with concentrator. The collected sample was loaded onto a Superdex200 column, the flow-through fraction was then loaded onto a Q-HP column. Collected fractions with α-synuclein eluates were pooled, concentrated and stored at −80° C.
(§2) (B) Preparation of aggregated α-synuclein: 5 mg/mL of α-synuclein in PBS buffer (pH 7.4) was incubated in tube with at 37° C. with shaking (700 rpm) for 5-10 days.
(D) PBB5 competition assay: 2 μM of α-synuclein was incubated with 0.26 μM 2-(4-(2-(methylamino)pyridine-5-yl)-1,3-butadiene-1-yl)benzothiazole-6-ol (PBB5) and serially diluted compound (three-fold serial dilution, from 10 to 0.001 μM) in a 96-well plate at 37° C. for 1 hour. Fluorescence intensity (excitation/emission=530/690 nm) of PBB5 was read by microplate spectrometer. Percentage of competition was calculated using the following equation: (Max−well of compound alone)/(Max−Min)*100%, where Max=(α-synuclein+PBB5) signals−(buffer+PBB5) signals; and Min=(buffer+PBB5) signals−(buffer+PBB5) signals. The IC50 value of each compound was calculated with GraphPad Prism software using the “4 Parameter Logistic Model or Sigmoidal Dose-Response Model”: Y=Bottom+(Top−Bottom)/(1+(IC50/X)^HillSlope)

For experiment [2], the target named is T1, α-synuclein. In words: In vitro fluorometric α-synuclein binding assay. The note with it: 2 μM α-synuclein, 37° C., 1 hour, fluorescence. Here is the method: as §1, §2
(C) In vitro fluorometric α-synuclein binding assays: 2 μM α-synuclein was incubated with serially diluted compound (three-fold serial dilutions, from 10 to 0.001 μM) in a 96-well plate at 37° C. for 1 hour. Fluorescence intensity was read by microplate spectrometer. Compound Kd values were calculated using the following equation: Y=Bmax*X/(Kd+X), where X is the concentration of compound; Y is the fluorescence signal of (compound+α-synuclein)−(compound+DMSO); and Bmax is the maximum signal.

For a further experiment, the target named is α-synuclein aggregates (Homo sapiens (Human), UniProt P37840). Put plainly: ReNcell VM α-synuclein aggregation assay. In kind it is cell-based. The settings on record: for DC50: ReNcell VM cells, read-out: Activity (DC50, concentration at which 50% of α-synuclein aggregates has been degraded). Here is the method:
The ReNcell VM α-synuclein aggregation assay was conducted at Charles River Laboratories (CRL). ReNcell VM is an immortalized human neural progenitor cell line derived from the ventral mesencephalon region of the brain. ReNcell VM cells were selected as in vitro cellular model for the α-synuclein aggregation assay, based on their growth features, differentiation potential into terminally differentiated neurons and amenability to adenoviral transduction. Aggregated human wild type α-synuclein was overexpressed through adenoviral delivery. Aggregated α-synuclein was detected with the aggregate-selective anti-α-synuclein antibody MJFR14 using immunocytochemistry; total α-synuclein levels were detected with Syn205 (α/β-synuclein-specific antibody).
The ReNcell VM α-synuclein aggregation assay was applied for compound screening to identify compounds capable of degrading α-synuclein aggregates. […] Immunoreactivity toward aggregated (MJFR14) and total α-synuclein (Syn205) was quantified using high content-based segmentation of immunoactive areas in immunocytochemical images (performed with the IN Cell 2200 (GE Healthcare)), followed by quantification of immunofluorescent intensity (performed by CRL's developed algorithm using IN Cell Developer Toolbox software).
Percentage effect (PE): Inhibition in comparison to BLANK (0.1% DMSO).
PE=100−(signal of compound/average signal BLANK)×100
Compound-induced cytotoxicity (% remaining cells)
% remaining cells=(nuclei count of compound/average nuclei count of BLANK)×100

Where [3] appears, read: 24 hour treatment, differentiated ReNcell VM cells.

As a reminder, the pIC50 is the negative decadic logarithm of the IC50, by convention in mol/L. The molecule `O=C1CCC(N2Cc3cc(OCCCCCNc4cc(-c5ccc(-c6nc7ccc(F)cc7s6)cc5)ccn4)ccc3C2=O)C(=O)N1` (stereo not drawn) [Compound 165825] had a pIC50 on α-synuclein [1] of less than 5.00.

A word on the pKd: it is the negative decadic logarithm of the Kd, by convention in mol/L. A lower pKd goes with a large Kd. For the molecule `COc1ccc2nc(-c3ccc(-c4ccnc(NCCOCCOc5ccc6c(c5)CN(C5CCC(=O)NC5=O)C6=O)c4)cc3)oc2c1` (stereo not drawn) [Compound 166123], the pKd at α-synuclein [2] was 6.32. Besides, at α-synuclein [1], the pIC50 is 6.39.

In turn, `CN(C)c1ccc(-c2ccc(-c3nc4ccc(C(=O)OCCOCCOCCOc5ccc6c(c5)CN(C5CCC(=O)NC5=O)C6=O)cc4s3)cc2)cn1` (stereo not drawn) [Compound 166124] had a negative-log Kd (pKd) on α-synuclein [2] of 6.47. Also, on α-synuclein [1], the pIC50 is 7.52.

Consider `CN(C)c1ccc(-c2ccc(-c3nc4ccc(NCCCNC(=O)COc5ccc6c(c5)CN(C5CCC(=O)NC5=O)C6=O)cc4s3)c(C(F)(F)F)c2)cn1` (stereo not drawn) [Compound 166362], for which the “inhibition of MJFR14 immunoreactivity” value on α-synuclein aggregates (6-day treatment, immunocytochemical images) is given as “clear inhibition”; against α-synuclein aggregates (setting [3]), “concentration-dependent inhibition”. The DC50 on α-synuclein aggregates fell in the range of 0.9 to 10 µM.

At α-synuclein [2], `O=C1CCC(N2Cc3cc(OCCOCCNc4cc(-c5ccc(-c6nc7ccc(F)cc7s6)c(C(F)(F)F)c5)ccn4)ccc3C2=O)C(=O)N1` (stereo not drawn) [Compound 166965] had a pKd of 6.66. The same molecule had a pIC50 on α-synuclein [1] of 5.00.

For the molecule `CN(C)c1ccc(-c2ccc(-c3cn4cc(OCCOCCN5C(=O)CCC(N6C(=O)c7ccc(O)cc7C6=O)C5=O)ccc4n3)cc2)c(F)n1` (stereo not drawn) [Compound 170350], at α-synuclein aggregates, the DC50 was in the range of 0.9 to 10 µM.

Regarding `CN(C)c1ccc2nc(-c3ccc(-c4ccc(NCCOCCN5C(=O)CCC(N6C(=O)c7ccc(O)cc7C6=O)C5=O)nc4)cc3)sc2c1` (stereo not drawn) [Compound 170351], the DC50 at α-synuclein aggregates is 0.9 to 10 µM.

Regarding `CN(C)c1ccc2nc(-c3ccc(-c4ccc(NCCOCCOc5ccc6c(c5)CN(C5CCC(=O)NC5=O)C6=O)nc4)cc3)sc2c1` (stereo not drawn) [Compound 170352], at α-synuclein aggregates, the DC50 is more than 10 µM.

Consider `CN(C)c1ccc2nc(-c3ccc(-c4ccc(NCCOCCOc5ccc6c(c5)C(=O)N(C5CCC(=O)NC5=O)C6=O)nc4)cc3)sc2c1` (stereo not drawn) [Compound 170353], for which the DC50 on α-synuclein aggregates was more than 10 µM.

As for `O=C1CCC(N2C(=O)c3ccc(OCCOCCNc4ccc(-c5ccc(-c6cc7ccncc7[nH]6)cc5)cn4)cc3C2=O)C(=O)N1` (stereo not drawn) [Compound 170354], the DC50 at α-synuclein aggregates lay within 0.01 to 0.9 µM.

Regarding `CN(C)c1ccc(-c2ccc(-c3nc4ccc(NCCOCCOCCOCCOCCOCCNc5cccc6c5C(=O)N(C5CCC(=O)NC5=O)C6=O)cc4s3)cc2)cn1` (stereo not drawn) [Compound 170355], the DC50 on α-synuclein aggregates is more than 10 µM.

In the case of `CN(C)c1ccc(-c2ccc(-c3nc4ccc(NCCOCCNc5cccc6c5C(=O)N(C5CCC(=O)NC5=O)C6=O)cc4s3)cc2)cn1` (stereo not drawn) [Compound 170356], on α-synuclein aggregates, the DC50 is more than 10 µM.

Consider `CN(C)c1ccc(-c2ccc(-c3nc4ccc(NC(=O)CCOCCOCCOc5ccc6c(c5)CN(C5CCC(=O)NC5=O)C6=O)cc4s3)cc2)cn1` (stereo not drawn) [Compound 170357], for which the “inhibition of MJFR14 immunoreactivity” value against α-synuclein aggregates (setting [3]) was “concentration-dependent inhibition”. Moreover, at α-synuclein aggregates, the DC50 lay in the range of 0.01 to 0.9 µM.

As to `CN(C)c1ccc(-c2ccc(-c3nc4ccc(NC(=O)CCOCCOc5ccc6c(c5)CN(C5CCC(=O)NC5=O)C6=O)cc4s3)cc2)cn1` (stereo not drawn) [Compound 170358], the DC50 at α-synuclein aggregates is more than 10 µM.

Consider `CN(C)c1ccc(-c2ccc(-c3cn4cc(OCCOCCOc5ccc6c(c5)CN(C5CCC(=O)NC5=O)C6=O)ccc4n3)cc2)c(F)n1` (stereo not drawn) [Compound 170450], for which the DC50 at α-synuclein aggregates is more than 10 µM.

`CN(C)c1ccc(-c2ccc(-c3cn4cc(OCCCCCOc5ccc6c(c5)CN(C5CCC(=O)NC5=O)C6=O)ccc4n3)cc2)c(F)n1` (stereo not drawn) [Compound 170451]: the DC50 on α-synuclein aggregates was more than 10 µM.

Take `CN(C)c1ccc(-c2ccc(-c3nc4ccc(NC(=O)CCCOc5ccc6c(c5)CN(C5CCC(=O)NC5=O)C6=O)cc4s3)cc2)cn1` (stereo not drawn) [Compound 170742]: the DC50 at α-synuclein aggregates is more than 10 µM.

With `CN(C)c1ccc(-c2ccc(-c3nc4ccc(OCCOCCOCCOc5ccc6c(c5)CN(C5CCC(=O)NC5=O)C6=O)cc4s3)c(C(F)(F)F)c2)cn1` (stereo not drawn) [Compound 174251], the DC50 on α-synuclein aggregates was more than 10 µM.

For `CN(C)c1ccc(-c2ccc(-c3nc4ccc(OC(=O)CCOCCOc5ccc6c(c5)CN(C5CCC(=O)NC5=O)C6=O)cc4s3)cc2)cn1` (stereo not drawn) [Compound 175552], the DC50 on α-synuclein aggregates was more than 10 µM.

Consider `CN(C)c1ccc2nc(-c3ccc(-c4ccc(NCCOCCOc5ccc6c(c5)CN(C5CCC(=O)NC5=O)C6=O)nc4)cc3C(F)(F)F)sc2c1` (stereo not drawn) [Compound 177031], for which the DC50 at α-synuclein aggregates is more than 10 µM.

For the molecule `O=C1CCC(N2Cc3cc(OCCOCCOc4ccc5nc(-c6ccc(-c7ccc(NC8CC8)nc7)cc6)sc5c4)ccc3C2=O)C(=O)N1` (stereo not drawn) [Compound 177032], on α-synuclein aggregates, the DC50 was more than 10 µM. This molecule also gave a pKd at α-synuclein [2] of 7.22.

Turning to `CN1C(=O)CCC(N2Cc3cc(OCCOCCOc4ccc5nc(-c6ccc(-c7ccc(N(C)C)nc7)cc6)sc5c4)ccc3C2=O)C1=O` (stereo not drawn) [Compound 177036], the DC50 on α-synuclein aggregates was more than 10 µM.

`COc1ccc2nc(-c3ccc(-c4ccc(NCCOCCOc5ccc6c(c5)CN(C5CCC(=O)NC5=O)C6=O)nc4)cc3)cn2c1` (stereo not drawn) [Compound 177037]: at α-synuclein aggregates, the DC50 fell in the range of 0.9 to 10 µM.

With `COc1ccc2nc(-c3ccc(-c4ccc(NCCOCCOc5cccc6c5C(=O)N(C5CCC(=O)NC5=O)C6=O)nc4)cc3)sc2c1` (stereo not drawn) [Compound 177038], the DC50 on α-synuclein aggregates was more than 10 µM.

`COc1ccc2nc(-c3ccc(-c4ccc(NCCOCCOc5ccc6c(c5)CN(C5CCC(=O)NC5=O)C6=O)nc4)cc3)sc2c1` (stereo not drawn) [Compound 177039]: the DC50 at α-synuclein aggregates is more than 10 µM.

`COc1ccc2nc(-c3ccc(-c4ccnc(NCCOCCOCC(=O)NC(C(=O)N5C[C@H](O)C[C@H]5C(=O)NCc5ccc(-c6scnc6C)cc5)C(C)(C)C)c4)cc3)cn2c1` (stereo partly drawn) [Compound 177685]: the DC50 on α-synuclein aggregates was more than 10 µM.

`Cc1ncsc1-c1ccc(CNC(=O)[C@@H]2C[C@@H](O)CN2C(=O)[C@@H](NC(=O)COCCOCCOc2ccc3nc(-c4ccc(-c5ccc(N(C)C)nc5)cc4)sc3c2)C(C)(C)C)cc1` [Compound 178884]: the DC50 on α-synuclein aggregates is more than 10 µM.

Regarding `Cc1ncsc1-c1ccc(CNC(=O)[C@@H]2C[C@@H](O)CN2C(=O)[C@@H](NC(=O)COCCOCCNc2ccc3nc(-c4ccc(-c5ccc(N(C)C)nc5)cc4C(F)(F)F)sc3c2)C(C)(C)C)cc1` [Compound 180187], the DC50 at α-synuclein aggregates was more than 10 µM.

`O=C1CCC(N2Cc3cc(OCCOCCNc4cc(-c5ccc(-c6nc7ccc(F)cc7s6)cc5)ccn4)ccc3C2=O)C(=O)N1` (stereo not drawn) [Compound 180948]: the “inhibition of MJFR14 immunoreactivity” value at α-synuclein aggregates (setting [3]) is recorded as “concentration-dependent inhibition”. Besides, the DC50 at α-synuclein aggregates was less than 0.01 µM.

As for `CN(C)c1ccc(-c2ccc(-c3nc4ccc(OCCOCCOc5cccc6c5CN(C5CCC(=O)NC5=O)C6=O)cc4s3)c(C(F)(F)F)c2)cn1` (stereo not drawn) [Compound 180950], the DC50 on α-synuclein aggregates was more than 10 µM.

As for `CN(C)c1ccc(-c2ccc(-c3nc4ccc(OCCCOc5ccc6c(c5)CN(C5CCC(=O)NC5=O)C6=O)cc4s3)cc2)cn1` (stereo not drawn) [Compound 184605], the DC50 at α-synuclein aggregates was more than 10 µM.

With `CN(C)c1ccc(-c2ccc(-c3nc4ccc(NCCOCCOc5cccc6c5CN(C5CCC(=O)NC5=O)C6=O)cc4s3)c(C(F)(F)F)c2)cn1` (stereo not drawn) [Compound 185563], the DC50 on α-synuclein aggregates was more than 10 µM.

On to `CN(C)c1ccc(-c2ccc(-c3nc4ccc(OCCCCC(=O)Nc5cccc6c5CN(C5CCC(=O)NC5=O)C6=O)cc4s3)cc2)cn1` (stereo not drawn) [Compound 189149], for which the DC50 at α-synuclein aggregates was more than 10 µM.

Take `COc1ccc2nc(-c3ccc(-c4ccnc(NCCOCCOc5cccc6c5CN(C5CCC(=O)NC5=O)C6=O)c4)cc3)cn2c1` (stereo not drawn) [Compound 190753]: the DC50 at α-synuclein aggregates was more than 10 µM.
